Assay results taken from patent US8188133B2, “Imidazole derivatives, preparation and user thereof as medicine” (Ipsen Pharma S.A.S., priority 2006, dated 2012).

Row | melting point [°C] | SMILES
1 | 193 to 195 | NC(=N[N+](=O)[O-])Nc1ccc(Oc2ccc(-c3c[nH]c(COc4ccccc4)n3)cc2)cc1F [Example 13, N-(2-fluoro-4-{4-[2-(phenoxymethyl)-1H-imidazol-4-yl]phenoxy}phenyl)-N″-nitroguanidine]
2 | 192 to 194 | Cc1ccc(NC(=O)Nc2ccc(Oc3ccc(-c4c[nH]c(COc5ccccc5)n4)cc3)cc2)cc1 [Example 1, N-(4-methylphenyl)-N′-(4-{4-[2-(phenoxymethyl)-1H-imidazol-4-yl]phenoxy}phenyl)urea]
3 | 185 to 187 | Cl.NS(=O)(=O)Nc1ccc(Oc2ccc(-c3c[nH]c(COc4ccccc4)n3)cc2)cc1F
4 | 171 to 173 | NC(=S)Nc1ccc(Oc2ccc(-c3c[nH]c(COc4ccccc4)n3)cc2)cc1F [Example 6, N-(2-fluoro-4-{4-[2-(phenoxymethyl)-1H-imidazol-4-yl]phenoxy}phenyl)thiourea]
5 | 139 to 141 | N#CN=C(N)Nc1ccc(Oc2ccc(-c3c[nH]c(COc4ccccc4)n3)cc2)cc1F [Example 12, N″-cyano-N-(2-fluoro-4-{4-[2-(phenoxymethyl)-1H-imidazol-4-yl]phenoxy}phenyl)guanidine]
6 | 105 to 107 | CCNC(=S)Nc1ccc(Oc2ccc(-c3c[nH]c(COc4ccccc4)n3)cc2)cc1F [Example 5, N-ethyl-N′-(2-fluoro-4-{4-[2-(phenoxymethyl)-1H-imidazol-4-yl]phenoxy}phenyl)thiourea]
7 | 200 to 202 | NC(=O)Nc1ccc(Oc2ccc(-c3c[nH]c(COc4ccccc4)n3)cc2)cc1 [Example 3, N-(4-{4-[2-(phenoxymethyl)-1H-imidazol-4-yl]phenoxy}phenyl)urea]
8 | 85 to 87 | CCCCNC(=O)Nc1ccc(Oc2ccc(-c3c[nH]c(COc4ccccc4)n3)cc2)cc1.O=C(O)C(F)(F)F
9 | 184 to 186 | CC(C)NC(=O)Nc1ccc(Oc2ccc(-c3c[nH]c(COc4ccccc4)n3)cc2)cc1 [Example 7, N-isopropyl-N′-(4-{4-[2-(phenoxymethyl)-1H-imidazol-4-yl]phenoxy}phenyl)urea]
10 | 178 to 180 | CCNC(=S)Nc1ccc(Oc2ccc(-c3c[nH]c(COc4ccccc4)n3)cc2)cc1 [Example 4, N-ethyl-N′-(4-{4-[2-(phenoxymethyl)-1H-imidazol-4-yl]phenoxy}phenyl)thiourea]
11 | 146 to 148 | O=C(Nc1ccccc1)Nc1ccc(Oc2ccc(-c3c[nH]c(COc4ccccc4)n3)cc2)cc1 [Example 8, N-(4-{4-[2-(phenoxymethyl)-1H-imidazol-4-yl]phenoxy}phenyl)-N′-phenylurea]
